Results from US20150031668A1, “CHROMAN DERIVATIVES AS TRPM8 INHIBITORS” (AMGEN INC., priority 2013, published 2015).
pIC50: −log10 of the molar value. Counter-ions that a name gives are not always drawn.

Molecular target: T1, human TRPM8 (Homo sapiens, UniProt Q7Z2W7)
T1 construct: expressed in transfected cells; host or cells: Chinese hamster ovary (CHO) cells, T-REx tetracycline-inducible expression system (Invitrogen); co-transfected with pcDNA3.1 aequorin
Assay: Luminescence readout assay for measuring intracellular calcium (aequorin, CHO cells expressing human TRPM8; icilin, L-menthol or cold activation)
Format: cell-based
Conditions: CHO cells expressing human TRPM8, icilin activation (1 μM), aequorin luminescence; read-out: hTRPM8 IC50
Method in brief: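 Activation was by 1 μM icilin, 100 μM L-menthol (test compound 2.5 min ahead) or cold buffer below 10° C (compound 1 min ahead). Calcium rise measured as aequorin luminescence in CHO cells with tetracycline-inducible human TRPM8.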

T1 sequence (Q7Z2W7 whole entry): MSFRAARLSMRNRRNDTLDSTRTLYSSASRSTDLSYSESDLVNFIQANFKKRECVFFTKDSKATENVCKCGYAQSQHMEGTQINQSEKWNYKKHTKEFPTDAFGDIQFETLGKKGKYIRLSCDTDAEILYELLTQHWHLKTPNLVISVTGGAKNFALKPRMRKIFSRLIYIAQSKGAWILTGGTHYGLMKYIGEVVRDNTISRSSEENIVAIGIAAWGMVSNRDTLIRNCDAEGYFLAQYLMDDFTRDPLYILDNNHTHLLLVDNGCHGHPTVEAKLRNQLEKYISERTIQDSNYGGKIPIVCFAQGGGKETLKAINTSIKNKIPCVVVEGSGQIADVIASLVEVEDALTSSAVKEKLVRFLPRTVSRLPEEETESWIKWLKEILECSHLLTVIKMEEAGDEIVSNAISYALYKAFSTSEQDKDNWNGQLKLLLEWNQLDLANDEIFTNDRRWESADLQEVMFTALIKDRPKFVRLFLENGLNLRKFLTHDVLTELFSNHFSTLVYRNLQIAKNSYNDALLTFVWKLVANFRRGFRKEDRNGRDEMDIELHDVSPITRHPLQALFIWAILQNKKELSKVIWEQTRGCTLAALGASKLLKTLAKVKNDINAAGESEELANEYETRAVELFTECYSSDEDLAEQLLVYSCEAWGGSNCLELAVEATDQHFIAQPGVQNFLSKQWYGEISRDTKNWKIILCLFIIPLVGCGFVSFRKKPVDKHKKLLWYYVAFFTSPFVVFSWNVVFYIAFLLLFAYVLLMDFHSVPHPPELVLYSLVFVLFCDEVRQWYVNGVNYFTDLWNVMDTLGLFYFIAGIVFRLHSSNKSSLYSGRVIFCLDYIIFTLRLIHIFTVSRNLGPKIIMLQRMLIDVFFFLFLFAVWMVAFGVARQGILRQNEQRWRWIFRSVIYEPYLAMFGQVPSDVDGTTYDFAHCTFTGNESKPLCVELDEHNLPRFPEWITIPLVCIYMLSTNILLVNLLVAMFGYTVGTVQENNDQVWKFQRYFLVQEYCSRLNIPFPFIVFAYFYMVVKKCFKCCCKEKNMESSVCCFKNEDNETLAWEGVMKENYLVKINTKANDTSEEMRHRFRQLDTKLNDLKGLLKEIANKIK

For Cc1nc(-c2cccc(C(=O)N[C@]3(c4ccc(OC(F)(F)F)cc4)CCOc4cccnc43)c2)no1 [Example 275, (S)-3-(5-methyl-1,2,4-oxadiazol-3-yl)-N-(4-(4-(trifluoromethoxy)phenyl)-3,4-dihydro-2H-pyrano[3,2-b]pyridin-4-yl)benzamide formate], the pIC50 was 7.47.

Cc1nc(-c2ccc(C(=O)N[C@]3(c4ccc(OC(F)(F)F)cc4)CCOc4cccnc43)cc2)no1 [Example 276, (S)-4-(5-methyl-1,2,4-oxadiazol-3-yl)-N-(4-(4-(trifluoromethoxy)phenyl)-3,4-dihydro-2H-pyrano[3,2-b]pyridin-4-yl)benzamide formate] gave a pIC50 of 7.80.

O=C(N[C@]1(c2ccc(OC(F)(F)F)cc2)CCOc2cccnc21)c1cccc(N2CCCC2=O)c1 [Example 277, (S)-3-(2-oxopyrrolidin-1-yl)-N-(4-(4-(trifluoromethoxy)phenyl)-3,4-dihydro-2H-pyrano[3,2-b]pyridin-4-yl)benzamide formate] showed a pIC50 of 7.07.

COc1ccc2c(c1)C=C(C(=O)N[C@]1(c3ccc(OC(F)(F)F)cc3)CCOc3cccnc31)CO2 [Example 278, (S)-6-methoxy-N-(4-(4-(trifluoromethoxy)phenyl)-3,4-dihydro-2H-pyrano[3,2-b]pyridin-4-yl)-2H-chromene-3-carboxamide fonnate] was tested, and the pIC50 was 7.17.

With CCOC(=O)c1nc(C(=O)N[C@]2(c3ccc(OC(F)(F)F)c(F)c3)CCOc3cccnc32)cs1 [Example 279, (S)-ethyl 4-((4-(3-fluoro-4-(trifluoromethoxy)phenyl)-3,4-dihydro-2H-pyrano[3,2-b]pyridin-4-yl)carbamoyl) thiazole-2-carboxylate] the pIC50 was 7.28.

Work on COC(=O)c1cccc(C(=O)N[C@]2(c3ccc(OC(F)(F)F)c(F)c3)CCOc3cccnc32)c1 [Example 280, (S)-methyl 3-((4-(3-fluoro-4-(trifluoromethoxy)phenyl)-3,4-dihydro-2H-pyrano[3,2-b]pyridin-4-yl)carbamoyl) benzoate] yielded a pIC50 of 7.59.

With O=C(N[C@]1(c2ccc(OC(F)(F)F)c(F)c2)CCOc2cccnc21)c1ccc(-c2nn[nH]n2)cn1 [Example 281, (S)—N-(4-(3-fluoro-4-(trifluoromethoxy)phenyl)-3,4-dihydro-2H-pyrano[3,2-b]pyridin-4-yl)-5-(2H-tetrazol-5-yl)picolinamide] the pIC50 was 7.29.

For O=C(N[C@]1(c2ccc(OC(F)(F)F)c(F)c2)CCOc2cccnc21)c1ccc(-c2ncon2)cn1 [Example 282, (S)—N-(4-(3-fluoro-4-(trifluoromethoxy)phenyl)-3,4-dihydro-2H-pyrano[3,2-b]pyridin-4-yl)-5-(1,2,4-oxadiazol-3-yl)picolinamide], the pIC50 was 8.15.

Work on Nc1ccc(C(=O)N[C@]2(c3ccc(OC(F)(F)F)c(F)c3)CCOc3cccnc32)nc1 [Example 284, (S)-5-amino-N-(4-(3-fluoro-4-(trifluoromethoxy)phenyl)-3,4-dihydro-2H-pyrano[3,2-b]pyridin-4-yl)picolinamide] yielded a pIC50 of 8.22.

COC(=O)c1cccc(S(=O)(=O)N[C@]2(c3ccc(OC(F)(F)F)c(F)c3)CCOc3cccnc32)c1 [Example 285, (S)-methyl 3-(N-(4-(3-fluoro-4-(trifluoromethoxy)phenyl)-3,4-dihydro-2H-pyrano[3,2-b]pyridin-4-yl)sulfamoyl)benzoate] was tested, and the pIC50 was 6.75.

COC(=O)c1ccc(S(=O)(=O)N[C@]2(c3ccc(OC(F)(F)F)c(F)c3)CCOc3cccnc32)cc1 [Example 286, (S)-methyl 4-(N-(4-(3-fluoro-4-(trifluoromethoxy)phenyl)-3,4-dihydro-2H-pyrano[3,2-b]pyridin-4-yl)sulfamoyl)benzoate] was tested, and the pIC50 was 6.12.

Cc1cc(C(=O)N[C@]2(c3ccc(C(F)(F)F)c(F)c3)CCOc3cccnc32)ccc1C(=O)O [Example 287, (S)-4-((4-(3-fluoro-4-(trifluoromethyl)phenyl)-3,4-dihydro-2H-pyrano[3,2-b]pyridin-4-yl)carbamoyl)-2-methylbenzoic acid] gave a pIC50 of 7.77.
